# In paper PMC9775191, “A Subset Screen of the Compounds Australia Scaffold Library Identifies 7-Acylaminodibenzoxazepinones as Potent and Selective Hits for Anti-Giardia Drug Discovery” (Biomedicines, 2022):
# Tested on: G. duodenalis BRIS/91/HEPU/1279
# Experiment: Primary Giardia screen at 10 µM (live-cell imaging, automated counting)
# Type: cell-based, Giardia duodenalis
# Conditions: 24 h
# Description: Each compound was assessed in singlicate, at a final concentration of 10 μM (0.4 μL of a 5 mM stock; diluted to a final volume of 200 μL in culture medium; 0.2% DMSO). […] Plates were incubated in sealed chambers filled with 3% O2, 5% CO2 in N2 and growth was assessed at 24 and 48 h using live cell imaging and automated counting as previously described. Growth inhibition was calculated by subtracting media only background counts and determining percentage growth relative to vehicle (0.2% DMSO) controls. The reliability of these assays was assessed by calculating Z’ factors for each plate as previously described.
row,Structure (SMILES),Average % Inhibition 24h
1,NC1=Nc2nc3ccccc3n2C(c2ccc(-c3ccc(F)cc3)o2)N1 (stereo not drawn) [SN00776094],0.0%

# Same assay, conditions: 24 h, first singlicate assay
row,Structure (SMILES),% Inhibition n=1 24h
1,NC1=Nc2nc3ccccc3n2C(c2ccc(-c3ccc(F)cc3)o2)N1 (stereo not drawn) [SN00776094],0.0%

# Same assay, conditions: 24 h, re-assessment
row,Structure (SMILES),% Inhibition n=2 24h
1,NC1=Nc2nc3ccccc3n2C(c2ccc(-c3ccc(F)cc3)o2)N1 (stereo not drawn) [SN00776094],0.0%

# Same assay, conditions: 48 h
row,Structure (SMILES),Average % Inhibition 48h
1,NC1=Nc2nc3ccccc3n2C(c2ccc(-c3ccc(F)cc3)o2)N1 (stereo not drawn) [SN00776094],18.4%

# Same assay, conditions: 48 h, first singlicate assay
row,Structure (SMILES),% Inhibition n=1 48h
1,O=c1onc(-c2cccnc2)n1Cc1noc(C2CC2)n1 [SN00772712],0.0%
2,CCc1nccn1CC1CCCN1 (stereo not drawn) [SN00772783],0.0%
3,O=C(Nc1cccc(-c2noc(C3CCOCC3)n2)c1)C1CC1 [SN00772921],0.0%
4,Cc1cccc(-c2noc(CN3CC(n4cc(C)cn4)C3)n2)c1 [SN00772979],6.1%
5,COc1ccc2c(c1)CCCN(C(=O)c1nnc3ccccc3c1N)C2 [SN00773025],10.7%
6,O=C(Cc1noc(-c2ccoc2)n1)NC1CCCCC1 [SN00773041],3.1%
7,c1ccc(-c2nnc(CN3CCn4c(nnc4C4CC4)C3)o2)cc1 [SN00773167],0.0%
8,COc1ccc(NC(=O)N2CCN(CC3CCCCN3C)CC2)cn1 (stereo not drawn) [SN00773239],0.0%
9,O=C(C1CC1)N1CCCCCC1C1CCN(c2nccc(C(F)(F)F)n2)CC1 (stereo not drawn) [SN00773266],15.0%
10,O=C(NC(c1ccccc1)C1CC1)c1ccc2c(c1)S(=O)(=O)Nc1ncnn1-2 (stereo not drawn) [SN00773273],0.0%
11,NC(=O)c1cnc(N2CCC3(CC2)CC3c2nc(-c3cccc(Cl)c3)no2)c(Cl)c1 (stereo not drawn) [SN00773335],0.0%
12,O=C(NCc1ccco1)N1CC2C3CCC(C3)C21 (stereo not drawn) [SN00773389],2.6%
13,CCCn1nc2c(cc1=O)CN(Cc1nc(-c3ccco3)no1)CC2 [SN00773497],0.0%
14,CC(C)n1nc2c(cc1=O)CN(Cc1nc(-c3ccoc3)no1)CC2 [SN00773517],10.7%
15,Cc1cc(C(=O)COC(=O)C2(O)CCCCC2)c(C)n1-c1c(C)n(C)n(-c2ccccc2)c1=O [SN00773547],1.1%
16,Cc1ccccc1Nc1nc(N)nc(CN2C(=O)NC(C)(c3cccc4ccccc34)C2=O)n1 (stereo not drawn) [SN00773551],21.3%
17,C=CCn1c(SCC(=O)N2CCCCC2)nc2scc(-c3ccco3)c2c1=O [SN00773666],5.6%
18,CCn1c(CN2Cc3ccccc3C[C@H]2C(N)=O)nc2cc(S(=O)(=O)N3CCCCC3)ccc21 [SN00773766],10.0%
19,CC(=O)N1CCN(Cc2nc3cc(Cl)ccc3n2C)CC1 [SN00773871],0.0%
20,O=C(Cn1c(=O)c2c(ncn2C2CCCC2)n(Cc2ccccc2)c1=O)Nc1cc(Cl)ccc1F [SN00773912],0.0%
21,O=c1ccccn1Cc1nnc(-c2ccc(Br)o2)o1 [SN00773952],8.9%
22,COc1ccc(-c2nnc(CN3C(=O)NC(C)(CCC(C)C)C3=O)o2)cc1 (stereo not drawn) [SN00773994],0.0%
23,Cc1ccc(C2(C)NC(=O)N(Cc3ncc(-c4ccccc4)o3)C2=O)cc1 (stereo not drawn) [SN00774002],0.0%
24,Cc1noc(CN2C(=O)NC(C)(c3ccccc3)C2=O)n1 (stereo not drawn) [SN00774045],0.0%
25,Cn1cc(CN2C(=O)NC(C)(c3ccco3)C2=O)cn1 (stereo not drawn) [SN00774074],16.2%
26,Cc1nn(Cc2csc(-c3ccsc3)n2)c(C)c1S(=O)(=O)N1CCc2ccccc21 [SN00774089],7.1%
27,O=C(Nc1cnn(Cc2cn3ccccc3n2)c1)Nc1ccc(F)cc1F [SN00774154],7.2%

row,Structure (SMILES),% Inhibition n=1 48h
1,O=C1C(=O)N(C2CCCC2)C(=O)N1Cc1nc(-c2ccsc2)no1 [SN00774178],0.0%
2,CCOc1ccccc1N1C(=O)C(=O)N(Cc2nc(C)no2)C1=O [SN00774186],14.0%
3,Cc1nn(C)c2sc(C(=O)N3CCN(S(=O)(=O)c4ccc(Br)cc4)CC3)cc12 [SN00774390],10.6%
4,Cc1nn(Cc2ccccc2)c2sc(C(=O)N3CCN(C(=O)N4CCCCC4)CC3)cc12 [SN00774391],14.0%
5,CC(=O)NC1CCCN(C(=O)c2cc3c(C)nn(Cc4ccc(F)cc4)c3s2)C1 (stereo not drawn) [SN00774438],0.0%
6,CC(C)CN1CC(C(=O)N2CCC(Nc3cccnn3)CC2)CC1=O (stereo not drawn) [SN00774466],0.0%
7,CCOC(=O)C1CCN(C(=O)c2ccc3c(c2)C(=O)N(c2ccccc2C)C3=O)CC1 [SN00774484],0.0%
8,CC1CCN(C(=O)c2n[nH]c(=O)c3ccccc23)CC1 [SN00774511],0.0%
9,CC(C)Cn1nc(C(=O)N2CCCCC2c2nc3ccccc3s2)c2ccccc2c1=O (stereo not drawn) [SN00774515],2.8%
10,Cc1ccc(-c2nc(-c3cccnc3)sc2CC(=O)Nc2ccc3nc(C)sc3c2)cc1 [SN00774529],0.0%
11,CC(C)(C)OC(=O)N1CCCC(N(Cc2ccccc2)C(=O)Cc2csc(-c3cccnc3)n2)C1 (stereo not drawn) [SN00774555],0.0%
12,O=C(c1ccc2[nH]cnc2c1)N1CCN(Cc2cccc(Cl)c2)CC1 [SN00774568],0.0%
13,C/C(=C/C(=O)N1CCN(C(=O)c2ccc3[nH]cnc3c2)CC1)C1CC1 [SN00774586],5.9%
14,COc1ccc(C2CCCN2C(=O)c2cnn(-c3ccc(C(F)(F)F)cn3)c2C)cc1 (stereo not drawn) [SN00774591],35.2%
15,Cc1c(C(=O)N2CCCC2Cn2cccn2)cnn1-c1ccccc1 (stereo not drawn) [SN00774604],16.2%
16,O=C(NCCN1CCCCCC1=O)C1CCCN1C(=O)C1CCCC1 (stereo not drawn) [SN00774624],0.0%
17,O=C(c1cnccn1)N1CCN(C(=O)C2CCCC2)CC1 [SN00774707],8.7%
18,Cc1cnc(C(=O)N2CCN(C(=O)OC(C)(C)C)C(C)C2)cn1 (stereo not drawn) [SN00774718],0.0%
19,O=C(Cc1ccccc1[N+](=O)[O-])N1CCN(C(=O)c2ccc3c(c2)OCO3)CC1 [SN00774731],9.4%
20,COc1ccc(S(=O)(=O)N2CCN(C(=O)c3cc(C)n(C(C)C)c3C)CC2)cc1OC [SN00774751],14.4%
21,O=C(c1cc(=O)[nH]c2ccccc12)N1CCN(Cc2ccc3c(c2)OCO3)CC1 [SN00774920],0.0%
22,O=C(C1CCCN1S(=O)(=O)c1ccc(Br)cc1)N1CCCCC1 (stereo not drawn) [SN00774966],3.8%
23,O=C(C1CCCN1C(=O)C1CCCCC1)N1CCCC(c2nc(-c3ccc(Cl)cc3)no2)C1 (stereo not drawn) [SN00774977],0.0%
24,O=C(C1CCCN(S(=O)(=O)c2ccccc2)C1)N1CCCC(C(F)(F)F)C1 (stereo not drawn) [SN00774985],7.6%
25,Cc1cc(C(=O)N2CCC(Oc3ccccc3)CC2)[nH]n1 [SN00775052],4.5%
26,O=C(c1cnn(-c2ccccc2)c1C1CC1)N1CCc2ccccc21 [SN00775113],0.5%
27,CSc1ccc(N2CC(C(=O)N3c4ccccc4CC3C)CC2=O)cc1 (stereo not drawn) [SN00775126],0.0%

row,Structure (SMILES),% Inhibition n=1 48h
1,COC(=O)c1cccc2c1CCCN2C(=O)C1CC(=O)N(CCc2ccccc2)C1 (stereo not drawn) [SN00775178],0.0%
2,COc1ccccc1N1CCN(C(=O)c2ccc3[nH]c(C)c(C)c3c2)CC1 [SN00775216],36.6%
3,Cc1cc(C)n2nc(C(=O)N3CCC(CC(N)=O)CC3)nc2n1 [SN00775259],0.0%
4,Cc1cc(C)n2nc(C(=O)N3CCCC(n4cncn4)C3)nc2n1 (stereo not drawn) [SN00775270],8.1%
5,CCOC(=O)c1sc2nc(CN3CCCCC3)nc(NCCC(=O)OC)c2c1C [SN00775388],0.0%
6,Cc1sc2nc(CN3CCC(C)CC3)nc(N(C)Cc3nc4ccsc4c(=O)[nH]3)c2c1C [SN00775403],11.1%
7,O=c1c(Br)c(N2CCCCC2)cnn1-c1ccccc1 [SN00775416],8.1%
8,COc1ccc(CN2CCCN(c3ncnc4ccccc34)CC2)cc1 [SN00775453],0.0%
9,O=c1[nH]c(CN2CCCCC2)nc2scc(-c3cccs3)c12 [SN00775605],0.0%
10,Cc1cccc(NC(=O)C2CCCN(c3c([N+](=O)[O-])c(C)nn3C)C2)n1 (stereo not drawn) [SN00775639],0.0%
11,Cc1nn(C)c(N2CCC(C(=O)NC(C)C(C)C)CC2)c1[N+](=O)[O-] (stereo not drawn) [SN00775640],7.0%
12,Cc1noc(C)c1S(=O)(=O)N1CCC(C(=O)NCC(c2ccccc2)N(C)C)CC1 (stereo not drawn) [SN00775659],0.0%
13,Cc1cnc(CN2CCOC(CNc3cccnn3)C2)o1 (stereo not drawn) [SN00775722],13.5%
14,CCOc1cc(C(=O)Nc2ccc(C3=CSC4=NCCCN34)cc2)ccc1OC(F)F [SN00775741],4.5%
15,COCCc1ccc(Oc2nnnn2-c2ccccc2)cc1 [SN00775761],24.6%
16,c1ccc(-n2nnnc2Oc2ccc(-c3nc4ccccc4s3)cc2)cc1 [SN00775768],19.1%
17,CCCCn1c(=O)[nH]c(=O)c2c1nc(-c1ccc(-c3cccc([N+](=O)[O-])c3)o1)n2CC [SN00775781],37.2%
18,CCCCn1c(=O)[nH]c(=O)c2c1nc(-c1ccc(-c3ccc([N+](=O)[O-])cc3Cl)o1)n2C [SN00775787],19.8%
19,CS(=O)(=O)N1CCCC1C(=O)OCc1cc(=O)n2c3c(sc2n1)CCCC3 (stereo not drawn) [SN00775816],10.4%
20,O=C(Cn1nnc(-c2cccs2)n1)NCc1ccc(Cl)cc1 [SN00775829],45.7%
21,O=C(Cn1nnc(-c2cccs2)n1)c1ccc(Cl)s1 [SN00775834],2.4%
22,O=C(Nc1ccnn1Cc1ccccn1)c1cccnc1Oc1ccccc1 [SN00775947],2.6%
23,O=C(CCc1ccc(F)cc1)Nc1ccn(Cc2ccccn2)n1 [SN00775953],0.0%
24,O=S1(=O)CCC(Nc2nc(-c3ccccn3)nc3scc(-c4ccccc4)c23)C1 (stereo not drawn) [SN00776030],24.9%
25,NC1=Nc2nc3ccccc3n2C(c2ccc(-c3ccc(F)cc3)o2)N1 (stereo not drawn) [SN00776094],31.0%

# Same assay, conditions: 48 h, re-assessment
row,Structure (SMILES),% Inhibition n=2 48h
1,NC1=Nc2nc3ccccc3n2C(c2ccc(-c3ccc(F)cc3)o2)N1 (stereo not drawn) [SN00776094],5.8%
